Each structure is given as a SMILES string.

The assay addresses T1, human GPR119 (Homo sapiens, UniProt Q8TDV5).
T1 construct: expressed in transfected cells
T1 sequence (Q8TDV5 1-335): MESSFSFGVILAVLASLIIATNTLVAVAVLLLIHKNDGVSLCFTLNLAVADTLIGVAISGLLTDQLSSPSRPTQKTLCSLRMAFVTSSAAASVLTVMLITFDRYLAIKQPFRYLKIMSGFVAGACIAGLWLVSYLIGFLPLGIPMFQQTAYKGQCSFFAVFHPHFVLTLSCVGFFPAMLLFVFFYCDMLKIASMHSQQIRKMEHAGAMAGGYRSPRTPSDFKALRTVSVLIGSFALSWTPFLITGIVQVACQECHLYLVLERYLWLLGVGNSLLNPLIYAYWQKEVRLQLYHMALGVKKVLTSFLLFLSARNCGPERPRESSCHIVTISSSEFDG
In words: Functional cellular assay measuring GPR119-mediated cAMP release (HTRF) in HEK-293 cells stably expressing recombinant GPR119. The class given is cell-based. As to conditions: cell line expressing human GPR119, 30 minutes at room temperature. The method, then: Functional Cellular Assays Measuring GPR119-mediated cAMP Release
Compounds of the present disclosure, which are agonists of GPR119, were characterized by functional assays measuring the cAMP response of HEK-293 cell lines stably expressing recombinant GPR119 from man, mouse or rat, or by using the hamster cell line HIT-T15 expressing GPR119 endogenously. The cAMP content was determined using a kit based on homogenous time-resolved fluorescence (HTRF) from Cisbio Corp. (cat. no. 62AM4PEC). For preparation, cells were split into T175 culture flasks and grown to near confluency in medium (DMEM/10% FCS for HEK-293 cells, and F-12K medium/10% horse serum/2.5% FCS for HIT-T15 cells, respectively). Medium was then removed and cells washed with PBS lacking calcium and magnesium ions, followed by proteinase treatment with accutase (Sigma-Aldrich, cat. no. A6964). Detached cells were washed and resuspended in assay buffer (1×HBSS; 20 mM HEPES, 0.1% BSA, 2 mM IBMX) and cellular density determined. They were then diluted to 400000 cells/mL and 25 μL-aliquots dispensed to the wells of 96-well plates. For measurement, 25 μL of test compound in assay buffer was added and incubated for 30 minutes at room temperature. After addition of HTRF reagents diluted in lysis buffer, the plates were incubated for 1 hour, followed by measuring the fluorescence ratio at 665 vs. 620 nm. Potency of the agonists was quantified by determining the concentrations that caused 50% of the maximal response/activation (EC50). See Table 6 for exemplary data obtained using the cell line expressing human GPR119.
Turning to `CN1CCC2(CN(c3ncc(N4CC[C@@H](Oc5ccc(OCC(F)(F)F)nc5)C4=O)cn3)C2)C1=O` [Compound 1-28], the EC50 amounted to 290 nM. For the compound `CN(C(=O)C1CN(c2ncc(N3CC[C@@H](Oc4ccc(OCC(F)(F)F)nc4)C3=O)cn2)C1)C1CC1` [Compound 4-19], the EC50 is 85 nM. In the case of `CN(C)C(=O)OC1CN(c2ncc(N3CC[C@@H](Oc4ccc(OCC(F)(F)F)nc4)C3=O)cn2)C1` [Compound 5-02] it was 1030 nM; in that of `CCN(CC)C(=O)C1CN(c2ncc(N3CC[C@@H](Oc4ccc(Oc5ccc(F)cc5)nc4)C3=O)cn2)C1` [Compound 4-07], 283 nM. Regarding `NC1CN(c2ncc(N3CC[C@@H](Oc4ccc(OCC(F)(F)F)nc4)C3=O)cn2)C1` [Compound 1-38], the EC50 was 9840 nM.

As for `CN(C)C(=O)C1CN(c2ncc(N3CC[C@@H](Oc4ccc(Oc5ccc(F)cc5)nc4)C3=O)cc2C#N)C1` [Compound 1-08], the EC50 turned out to be 92 nM. Take `O=C(O)C1CN(c2ncc(N3CC[C@@H](Oc4ccc(OCC5CC5)nc4)C3=O)cn2)C1` [Compound 3-01]: the concentration giving a half-maximal response (EC50) came out at 4920 nM. In the case of `CC(C)[S+]([O-])C1CN(c2ncc(N3CC[C@@H](Oc4ccc(OCC(F)(F)F)nc4)C3=O)cn2)C1` (single isomer, unassigned) [Compound 1-35], the EC50 amounted to 181 nM. In the case of `CN(CCO)C(=O)C1CN(c2ncc(N3CC[C@@H](Oc4ccc(OCC(F)(F)F)nc4)C3=O)cn2)C1` [Compound 4-17] it was 261 nM; in that of `CN(C)C(=O)C1CN(c2ncc(N3CC[C@@H](Oc4ccc(C(=O)C5CC5)cc4)C3=O)cn2)C1` [Compound 2-01], 218 nM. For `CS(=O)(=O)C1CN(c2ncc(N3CC[C@@H](Oc4ccc(OCC(F)(F)F)nc4)C3=O)cn2)C1` [Compound 1-16], the EC50 was found to be 58 nM.

Turning to `N#Cc1cc(N2CC[C@@H](Oc3ccc(Oc4ccc(F)cc4)nc3)C2=O)cnc1N1CC(O)C1` [Compound 1-03], the EC50 was 255 nM.

Consider `O=C(C1CN(c2ncc(N3CC[C@@H](Oc4ccc(Oc5ccc(F)cc5)nc4)C3=O)cn2)C1)N1CCC(O)CC1` [Compound 4-06], for which the EC50 worked out at 665 nM. For the compound `CN(C)C(=O)C1CN(c2ncc(N3CCC(Cc4ccc(OCC(F)(F)F)nc4)C3=O)cn2)C1` (single isomer, unassigned) [Compound 1-42], the EC50 is 157 nM. `CC(C)SC1CN(c2ncc(N3CC[C@@H](Oc4ccc(OCC(F)(F)F)nc4)C3=O)cn2)C1` [Compound 1-29]: the half-maximal effective concentration (EC50) was 16 nM. Consider `O=C(O)C1CN(c2ccc(N3CC[C@@H](Oc4ccc(OCC(F)(F)F)nc4)C3=O)cn2)C1` [Compound 3-02], for which the EC50 turned out to be 391 nM. For the compound `O=C(NCO)C1CN(c2ccc(N3CC[C@@H](Oc4ccc(OCC(F)(F)F)nc4)C3=O)cn2)C1` [Compound 5-04], the EC50 was 146 nM. On to `CN(C)C(=O)C1CN(c2ncc(N3CC[C@@H](Oc4ccc(OCC(F)(F)F)cc4)C3=O)cn2)C1` [Compound 1-53], for which the EC50 turned out to be 351 nM. In the case of `CN(C)C(=O)C1CN(c2ncc(N3CC(C)(C)C(Oc4ccc(OCC(F)(F)F)cc4)C3=O)cn2)C1` (stereo not drawn) [Compound 1-19], the EC50 is 180 nM. On to `O=C(C1CN(c2ncc(N3CC[C@@H](Oc4ccc(Oc5ccc(F)cc5)nc4)C3=O)cn2)C1)N1CC(O)C1` [Compound 4-11], for which the concentration giving a half-maximal response (EC50) came out at 915 nM. In the case of `NC(=O)CNC(=O)C1CN(c2ncc(N3CC[C@@H](Oc4ccc(Oc5ccc(F)cc5)nc4)C3=O)cn2)C1` [Compound 4-02] it was 6710 nM; in that of `NC(=O)C1CN(c2ncc(N3CC[C@@H](Oc4ccc(OCC(F)(F)F)nc4)C3=O)cn2)C1` [Compound 4-21], 245 nM. On to `CN(C)C(=O)C1CN(c2ncc(N3CC(C)(C)C(Oc4ccc(C(=O)C5CC5)cc4)C3=O)cn2)C1` (stereo not drawn) [Compound 1-48], for which the EC50 amounted to 752 nM. Take `COCC(=O)NC1CN(c2ncc(N3CC[C@@H](Oc4ccc(OCC(F)(F)F)nc4)C3=O)cn2)C1` [Compound 4-23]: the EC50 was found to be 956 nM. Turning to `CN(CO)C(=O)C1CN(c2ccc(N3CC[C@@H](Oc4ccc(OCC(F)(F)F)nc4)C3=O)cn2)C1` [Compound 5-05], the 50% effective concentration (EC50) amounted to 67 nM. For the compound `COC(=O)C1CN(c2ccc(N3CC[C@@H](Oc4ccc(OCC5CC5)nc4)C3=O)cn2)C1` [Compound 1-07], the EC50 stood at 30 nM. With `C[S+]([O-])C1CN(c2ncc(N3CC[C@@H](Oc4ccc(C(=O)C5CC5)cc4)C3=O)cn2)C1` (single isomer, unassigned) [Compound 1-21], the EC50 stood at 991 nM. Regarding `CN(C)C(=O)C1CN(c2ncc(N3CC[C@@H](Oc4ccc(OCC(F)(F)F)nc4)C3=O)cn2)C1` [Compound 1-31], the EC50 is 129 nM.

As for `O=C(O)C1CN(c2ncc(N3CC[C@@H](Oc4ccc(OCC(F)(F)F)nc4)C3=O)cn2)C1` [Compound 3-04], the half-maximal effective concentration (EC50) stood at 9160 nM. The same measure for `C[S+]([O-])C1CN(c2ncc(N3CC[C@@H](Oc4ccc(C(=O)C5CC5)cc4)C3=O)cn2)C1` (single isomer, unassigned) [Compound 1-20]: 1970 nM. The same measure for `CS(=O)(=O)C1CN(c2ncc(N3CC[C@H](Oc4ccc(OCC(F)(F)F)nc4)C3=O)cn2)C1` [Compound 1-50]: 321 nM; for `Cc1cnc(-c2ccc(O[C@@H]3CCN(c4cnc(N5CC(C(=O)N(C)C)C5)nc4)C3=O)cn2)s1` [Compound 2-05]: 116 nM. For `C[S+]([O-])C1CN(c2ncc(N3CC[C@@H](Oc4ccc(C(=O)C5CC5)c(F)c4)C3=O)cn2)C1` (stereo partly drawn) [Compound 1-40], the half-maximal effective concentration (EC50) turned out to be 1820 nM.

Usually EC50 stands for the concentration needed to bring the measured effect to its halfway point.

Values taken from patent publication US10392366B2, “Azetidine compounds as GPR119 modulators for the treatment of diabetes, obesity, dyslipidemia and related disorders” (SANOFI, priority 2017, dated 2019).
